Where two headings read alike, the source gives them in different places.
Tests used:
[1] = target: T1, type 1 human 5α-reductase (HRED1) (Homo sapiens, UniProt P18405); experiment: Cell free assay of 5α-reductase, microsomes of rat 1A cells expressing type 1 isoenzyme (HRED1); format: biochemical; set-up: expressed in transfected cells; host or cells: rat 1A cells infected with pMV7 retrovirus; microsomes;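 further: microsomes from rat 1A cells expressing human type 1 5α-reductase, conversion of radiolabeled testosterone to dihydrotestosterone quantified by thin layer chromatography with radioanalytic scanning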
T1 sequence (P18405 1-259): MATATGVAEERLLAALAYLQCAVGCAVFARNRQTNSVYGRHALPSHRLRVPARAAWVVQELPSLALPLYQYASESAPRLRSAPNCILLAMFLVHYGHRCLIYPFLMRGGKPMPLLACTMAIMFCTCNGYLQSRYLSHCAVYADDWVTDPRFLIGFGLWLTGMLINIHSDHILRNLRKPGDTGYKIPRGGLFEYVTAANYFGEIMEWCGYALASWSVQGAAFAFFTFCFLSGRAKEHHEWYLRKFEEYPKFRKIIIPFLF

[2] = target: T2, type 2 human 5α-reductase (HRED2) (Homo sapiens, UniProt P31213); experiment: Cell free assay of 5α-reductase, microsomes of rat 1A cells expressing type 2 isoenzyme (HRED2); format: biochemical; set-up: expressed in transfected cells; host or cells: rat 1A cells infected with pMV7 retrovirus; microsomes;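 further: labeled testosterone and its product dihydrotestosterone measured in microsomal reaction extracts via thin layer chromatography plus radioanalytic scanning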
T2 sequence (P31213 1-254): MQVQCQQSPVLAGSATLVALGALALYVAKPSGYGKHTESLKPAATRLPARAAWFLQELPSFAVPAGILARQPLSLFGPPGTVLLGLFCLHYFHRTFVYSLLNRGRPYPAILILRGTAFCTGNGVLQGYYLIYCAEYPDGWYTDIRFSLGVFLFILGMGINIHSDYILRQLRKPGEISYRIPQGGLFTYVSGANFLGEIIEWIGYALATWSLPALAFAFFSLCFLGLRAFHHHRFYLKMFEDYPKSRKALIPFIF

[3] = 100 uM, cell free assay, Table 2, read-out: HRED1 % Inhibition @ 100 uM
[4] = cell free assay, Table 2 catechols, read-out: HRED1 IC50
[5] = 100 uM, cell free assay, Table 2, read-out: HRED2 % Inhibition @ 100 uM
[6] = 100 uM, cell free assay, Table 3, read-out: HRED1 % Inhibition @ 100 uM
[7] = cell free assay, Table 3 curcumin and related compounds, read-out: HRED1 IC50
[8] = 100 uM, cell free assay, Table 3, read-out: HRED2 % Inhibition @ 100 uM
[9] = 100 uM, cell free assay, Table 1
[10] = cell free assay, Table 1 flavanoids, read-out: HRED1 IC50
[11] = cell free assay, Table 1 flavanoids, read-out: HRED2 IC50
[12] = 100 μM, cell free assay, Table 4, read-out: HRED1 % Inhibition @ 100 μM
[13] = cell free assay, Table 4 quinones, read-out: HRED1 IC50
[14] = 100 μM, cell free assay, Table 4, read-out: HRED2 % Inhibition @ 100 μM
[15] = cell free assay, Table 4 quinones, read-out: HRED2 IC50
[16] = 100 μM, cell free assay, Table 4
[17] = cell free assay, Table 2 catechols, read-out: HRED2 IC50
[18] = 100 uM, cell free assay, Table 2
[19] = cell-free assay, read-out: IC50, type 1 isoenzyme
[20] = read-out: IC50, type 2 isoenzyme
[21] = 100 uM, cell free assay, Table 3

For O=C1C=CC(=C(c2ccc(O)c(O)c2)c2ccccc2S(=O)(=O)O)C=C1O (mixture of isomers) [Pyrocatechol Violet], the inhibition at 100 µM [1, 3] was 85%, the IC50 [1, 4] was 48 µM and the inhibition at 100 µM [2, 5] was 47%.

COc1cc(C=CC=O)ccc1O [4-hydroxy-3-methoxycinnamaldehyde] was tested, and the inhibition at 100 µM [1, 6] was 10%, the IC50 [1, 7] was > 100 µM and the inhibition at 100 µM [2, 8] was -60%. For the same molecule, the IC50 ([2]; read-out: HRED2 IC50) was > 100 µM.

O=c1cc(-c2ccccc2)oc2c1ccc1ccccc12 [Alpha-napthoflavone] was tested, and the “HRED1 % Inhibition @ 100 uM” value [1, 9] was 6%, the IC50 [1, 10] was > 100 µM and the “HRED2 % Inhibition @ 100 uM” value [2, 9] was “(−13) %”. For the same molecule, the IC50 [2, 11] was > 100 µM.

For O=C1c2ccc(O)cc2C(=O)c2ccc(O)cc21 [Anthraflavic Acid], the inhibition at 100 µM [1, 12] was 27%, the IC50 [1, 13] was > 100 µM and the inhibition at 100 µM [2, 14] was 22%. For the same molecule, the IC50 [2, 15] was > 100 µM.

With O=C1c2ccccc2C(=O)c2ccccc21 [Anthraquinone] the IC50 [1] was > 100 µM, the inhibition at 100 µM ([1]; read-out: HRED1 % Inhibition @ 100 μM) was 6% and the IC50 ([1]; read-out: HRED1 IC50, cell free assay, Table 4 quinones) was > 100 µM. For the same molecule, the IC50 [2] was > 100 µM, the inhibition at 100 µM ([2]; read-out: HRED2 % Inhibition @ 100 μM) was 9% and the IC50 ([2]; read-out: HRED2 IC50, cell free assay, Table 4 quinones) was > 100 µM.

For O=C1c2cccc(O)c2C(=O)c2cccc(O)c21 [Anthrarufin], the “HRED1 % Inhibition @ 100 μM” value [1, 16] was 67%, the inhibition at 100 µM [1, 12] was 67% and the IC50 [1, 13] was 40 µM. For the same molecule, the “HRED2 % Inhibition @ 100 μM” value [2, 16] was 13%, the inhibition at 100 µM [2, 14] was 13% and the IC50 [2, 15] was > 100 µM.

In the case of O=c1cc(-c2ccccc2)oc2ccc3ccccc3c12 [Beta-napthoflavone], the “HRED1 % Inhibition @ 100 uM” value [1, 9] is reported as 3%, the IC50 [1, 10] is reported as > 100 µM and the “HRED2 % Inhibition @ 100 uM” value [2, 9] is reported as 4%. The IC50 [2, 11] was > 100 µM.

For O=c1c(Br)cc2c(-c3ccccc3S(=O)(=O)O)c3cc(Br)c(O)c(O)c3oc-2c1O [Bromopyrogallol Red], the inhibition at 100 µM [1, 3] was 98%, the IC50 [1, 4] was 7 µM and the inhibition at 100 µM [2, 5] was 58%. The IC50 [2, 17] was 84 µM.

COc1cc(CNC(=O)CCCC/C=C/C(C)C)ccc1O [Capsaicin] was tested, and the IC50 [1] was > 100 µM, the inhibition at 100 µM [1, 6] was 0% and the IC50 [1, 7] was > 100 µM. The IC50 [2] was > 100 µM, the inhibition at 100 µM [2, 8] was 8% and the IC50 ([2]; read-out: HRED2 IC50) was > 100 µM.

With O=c1cc(-c2ccccc2)oc2cc(O)cc(O)c12 [Chrysin] the IC50 [1, 10] was > 100 µM and the IC50 [2, 11] was > 100 µM.

In the case of OC1c2ccccc2-c2ccccc2C1O (stereo not drawn) [Cnc], the “HRED1 % Inhibition @ 100 uM” value [1, 18] is reported as 42%, the IC50 [1, 4] is reported as > 100 µM and the “HRED2 % Inhibition @ 100 uM” value [2, 18] is reported as “(−75) %”. For the same molecule, the IC50 [2, 17] was > 100 µM.

COC1=C(OC)C(=O)C(C/C=C(\C)CC/C=C(\C)CC/C=C(\C)CC/C=C(\C)CC/C=C(\C)CC/C=C(\C)CC/C=C(\C)CC/C=C(\C)CC/C=C(\C)CCC=C(C)C)=C(C)C1=O [Coenzyme q] was tested, and the “HRED1 % Inhibition @ 100 μM” value [1, 16] was 77%, the IC50 [1, 13] was 12 µM and the “inhibitory activity against type 1 isoenzyme, in words” value ([1]; cell-free assay) was “potent cell-free inhibitors”. The “HRED2 % Inhibition @ 100 μM” value [2, 16] was 81%, the IC50 [2, 15] was 22 µM and the “inhibitory activity against type 2 isoenzyme, in words” value ([2]; cell-free assay) was “potent cell-free inhibitors”.

With COc1cc(/C=C/CO)ccc1O [Coniferol] the IC50 [1, 7] was > 100 µM, the IC50 [1, 19] was > 100 µM and the IC50 [2, 20] was > 100 µM.

CC(/C=C/C=C(\C)C(=O)O)=C\C=C\C=C(C)\C=C\C=C(/C)C(=O)O [Crocetin] was tested, and the IC50 ([1]; cell free assay, Table 6 fatty acids, read-out: HRED1 IC50) was 7 µM and the IC50 ([2]; cell free assay, Table 6 fatty acids, read-out: HRED2 IC50) was > 100 µM.

For COc1cc(CCC(=O)CC(=O)CCc2ccc(O)cc2)ccc1O [Demethoxytetrahydrocurcumin], the “HRED1 % Inhibition @ 100 uM” value [1, 21] was 23%, the IC50 [1, 7] was > 100 µM and the “HRED2 % Inhibition @ 100 uM” value [2, 21] was 42%. The IC50 ([2]; cell free assay, Table 3 curcumin and related compounds, read-out: HRED2 IC50) was > 100 µM.

In the case of O=c1oc2c(O)c(O)cc3c(=O)oc4c(O)c(O)cc1c4c23 [Ellagic Acid], the inhibition at 100 µM [1, 3] is reported as 7%, the IC50 [1, 4] is reported as > 100 µM and the inhibition at 100 µM [2, 5] is reported as 9%. For the same molecule, the IC50 [2, 17] was > 100 µM.

In the case of C=CCc1ccc(O)c(OC)c1 [Eugenol], the IC50 [1, 7] is reported as > 100 µM, the IC50 [1, 19] is reported as > 100 µM and the inhibition at 100 µM ([1]; read-out: HRED1 % Inhibition @ 100 uM) is reported as 0%. For the same molecule, the inhibition at 100 µM ([2]; read-out: HRED2 % Inhibition @ 100 uM) was 50% and the IC50 [2, 20] was > 100 µM.

O=c1ccc2cc(O)c(O)cc2o1 [Exculetin] was tested, and the “HRED1 % Inhibition @ 100 uM” value [1, 18] was 7%, the IC50 [1, 4] was > 100 µM and the “HRED2 % Inhibition @ 100 uM” value [2, 18] was 13%. For the same molecule, the IC50 [2, 17] was > 100 µM.

Reference: patent US20030144346A1, “Methods and compositions for regulation of 5-alpha reductase activity” (priority 1997, published 2003)
